# Reference: patent US7863267B2, “Use of selective chloride channel modulators to treat methamphetamine abuse” (priority 2003, dated 2011)
# Where two headings read alike, the source gives them in different places.
# Columns and labels:
# [1] = excreted unchanged, not appreciably metabolized; cited from earlier work
# [2] = cited from earlier work
# [3] = tested on: ethanol withdrawal syndrome; conditions: cited from earlier work
# alcoholics [4] = assay: Heart rate and blood pressure before and after flumazenil in alcoholics; format: in vivo, human; parameters: Heart rate: patients with a significant reduction / Diastolic blood pressure: patients with a significant reduction: concentration or dose not given beside the values
# Text: (§1) 64 alcoholics (51 males and 13 females) voluntarily entered a treatment program to discontinue the use of alcohol. The patients were provided the appropriate information and the corresponding informed consent form was obtained from them. The patients were warned not to drink alcohol the morning on which the treatment was to be carried out to enable better evaluation of the withdrawal symptoms. Table 14 summarizes the characteristics of the patients treated associated with alcohol use.
# (§2) Before starting the treatment, the patients underwent a complete medical and psychological examination. The monitoring of the patients throughout the morning included a complete blood count, a biochemical profile [creatinine, glucose, blood urea nitrogen (BUN), cholesterol (HDL and LDL), triglycerides, alkaline phosphatase, LDH (lactic dehydrogenase) and total proteins], hepatic function tests [GOT, GPT, GGT, bilirubin), electrocardiogram and, if need be, pregnancy test and x-ray examination. The exclusion criteria applied included acute or uncompensated illnesses, as well as the taking of any drug contraindicated with flumazenil. No patient was excluded after the pre-admission interview and the tests performed. Admission of one patient was postponed until their cardiac pathology was checked.
# (§3) Before and after the administration of flumazenil, the withdrawal symptomatology was measured using the CIWA-A evaluation (Adinoff et al., Medical Toxicology 3:172-196 (1988)), as well as heart rate and blood pressure.
# (§4) Flumazenil was administered at a dose of 0.2 mg every 3 minutes (up to a total of 2 mg/day). This quantity per dose was established to minimize the adverse side effects associated with withdrawal or interactions with other pharmaceuticals or psychopathologies.
# (§5) Patients who presented marked anxiety were administered an additional dose of 192 mg of clomethiazole 30 minutes before administration of flumazenil.
# alcoholics [5] = assay: Clinical observations during hospitalization (appetite, sleep, anxiety, desire to drink); format: in vivo, human
# Text: as §1, §4
# alcoholics [6] = assay: Adverse events during flumazenil administration in alcoholics; format: in vivo, human
# Text: as §1, §4, §5
# [7] = tested on: alcoholics in the acute withdrawal phase; conditions: 2 mg IV for 1 minute, 8 alcoholics, cited from earlier work
# alcoholics [8] = assay: CIWA-A withdrawal symptomatology before and after flumazenil in alcoholics; format: in vivo, human
# Text: as §1, §2, §3, §4, §5
# alcoholics [9] = assay: Follow-up after flumazenil treatment programme (therapy, dropouts); format: in vivo, human
# Method: Before discharge from the hospital, the following medications were prescribed: • Vitamin B complex: 1 month with one dose during breakfast and one dose during lunch. • Piracetam, or a medicament that is pharmacologically equivalent, 3 g for 1 week with one dose during breakfast and 800 mg for 1 month with one dose during breakfast and one dose during lunch; • Fluoxetine 20 mg for 2 months with one dose during breakfast; • Clomethiazole 192 mg for 1 week with one dose during breakfast and one dose during dinner and a subsequent elimination of dose during the second week; • Disulfuram 250 mg with one dose during breakfast.
# As part of the treatment program, the patients were instructed to attend the outpatient treatment center for 9 months with decreasing frequency [once a week for the first three months, once every two weeks during the second three months, and once a month during the third three months].
# Likewise, a semi-structured follow-up of cognitive behavior therapy was implemented. Individual and family psychotherapy was focused on 4 major interventions (cognitive restructuring, work therapy, prevention of relapse, and stress reduction) aimed at rehabilitating the social, family, work, personal and leisure life of the patient.
# Table 16 statistically summarizes the results obtained before and after the treatment (at the end of 18 hours).
# [10] = after first administration, 53 patients
# [11] = after first administration, 55 patients
# [12] = after second administration, 55 patients
# [13] = after second administration, 56 patients
# [14] = after second administration, 58 patients
smiles,measurement,setting,value
NCC1(CC(=O)O)CCCCC1 [Gabapentin],Elimination half-life,[1],5 to 7 h
OCCOCCN1CCN(C(c2ccccc2)c2ccc(Cl)cc2)CC1 (centres unmarked) [Hydroxyzine],Time to effects after oral administration,[2],15 to 30 min
"CCOC(=O)c1ncn2c1CN(C)C(=O)c1cc(F)ccc1-2 [flumazenil, ethyl 8-fluoro-5,6-dihydro-5-methyl-6-oxo-4H-imidazol[1,5-a][1,4]benzodiazepine-3-carboxylate]","Anxiogenic withdrawal effects (social interaction test, elevated plus maze)",[3]; rat models of the ethanol withdrawal syndrome,reverse anxiogenic withdrawal effects
same,Agitation and stereotyped behavior induced by withdrawal from long-term ethanol exposure,[3]; rats,prevent the agitation and stereotyped behavior
same,Diastolic blood pressure: patients with a significant increase,alcoholics [4]; [10],18.9%
same,Diastolic blood pressure: patients with a significant reduction,alcoholics [4]; [10],34%
same,Diastolic blood pressure: patients with no change,alcoholics [4]; [10],47.2%
same,Systolic blood pressure: patients with a significant increase,alcoholics [4]; [10],15.1%
same,Systolic blood pressure: patients with a significant reduction,alcoholics [4]; [10],47.2%
same,Systolic blood pressure: patients with no change,alcoholics [4]; [10],37.7%
same,Heart rate: patients with a significant increase,alcoholics [4]; [11],9.1%
same,Heart rate: patients with a significant reduction,alcoholics [4]; [11],50.9%
same,Heart rate: patients with no change,alcoholics [4]; [11],40.0%
same,Heart rate: patients with a significant reduction,alcoholics [4]; [12],41.8%
same,Heart rate: patients with no change,alcoholics [4]; [12],58.2%
same,Diastolic blood pressure: patients with a significant increase,alcoholics [4]; [13],19.6%
same,Diastolic blood pressure: patients with a significant reduction,alcoholics [4]; [13],28.6%
same,Diastolic blood pressure: patients with no change,alcoholics [4]; [13],51.8%
same,Systolic blood pressure: patients with a significant increase,alcoholics [4]; [13],16.1%
same,Systolic blood pressure: patients with a significant reduction,alcoholics [4]; [13],28.6
same,Systolic blood pressure: patients with no change,alcoholics [4]; [13],55.4%
same,Diastolic blood pressure mean after treatment,"alcoholics [4]; after treatment (at the end of 18 hours), n=51, before treatment mean 86.27",82.75
same,Systolic blood pressure mean after treatment,"alcoholics [4]; after treatment (at the end of 18 hours), n=51, before treatment mean 135.2",126.67
same,Heart rate mean after treatment,"alcoholics [4]; after treatment (at the end of 18 hours), n=53, before treatment mean 81.42, in beats/min (unit assumed)",75.02
same,Psychophysiological functions such as appetite and sleep,alcoholics [5],regained very rapidly
same,Spontaneous verbal report from the majority of the patients,alcoholics [5],absence of anxiety and of the desire to drink alcohol
same,Patients who suffered headache during or immediately following administration,alcoholics [6]; disappeared after a few minutes or after metamizole magnesium,Approximately 10%
same,First administration of flumazenil interrupted and postponed to the following day,"alcoholics [6]; of the 64 patients treated, increase in confusion, distal tremors or anxiety",3 cases
same,Withdrawal symptoms after flumazenil,[7]; in other cases,the withdrawal symptoms disappeared but returned a few hours later
same,Withdrawal symptoms after flumazenil,"[7]; in some cases, especially sweats and anxiety",immediate worsening of the withdrawal symptoms
same,CIWA-A scoring: patients with a significant reduction,"alcoholics [8]; after first administration of flumazenil (0.2 mg every 3 min up to 2 mg/day), 55 patients",47.3%
same,CIWA-A scoring: patients with a significant increase,alcoholics [8]; [11],12.7%
same,CIWA-A scoring: patients with no change,alcoholics [8]; [11],40.0%
same,CIWA-A scoring: patients with a significant increase,alcoholics [8]; [14],8.6%
same,CIWA-A scoring: patients with a significant reduction,alcoholics [8]; [14],36.2%
same,CIWA-A scoring: patients with no change,alcoholics [8]; [14],55.2%
same,CIWA-A mean after treatment,"alcoholics [8]; after treatment (at the end of 18 hours), n=54, before treatment mean 4.13",.76
same,Follow-up: Dropouts,"alcoholics [9]; Month 1, N 43",4.7%
same,Follow-up: Therapy and Disulfiram,"alcoholics [9]; Month 1, N 43",95.3%
same,Follow-up: Therapy without Disulfiram,"alcoholics [9]; Month 1, N 43",4.5%
same,Follow-up: Dropouts,"alcoholics [9]; Month 3, N 22",9.1%
same,Follow-up: Therapy and Disulfiram,"alcoholics [9]; Month 3, N 22",86.4%
same,Follow-up: Dropouts,"alcoholics [9]; Month 6, N 12",25%
same,Follow-up: Therapy and Disulfiram,"alcoholics [9]; Month 6, N 12",75%
same,Follow-up: Dropouts,"alcoholics [9]; Month 9, N 8",12.5%
same,Follow-up: Therapy and Disulfiram,"alcoholics [9]; Month 9, N 8",75%
same,Follow-up: Therapy without Disulfiram,"alcoholics [9]; Month 9, N 8",12.5%
